In patent publication EP0234708A1, “Tetrahydrocarbazole 1-alkanoic acids” (MERCK FROSST CANADA INC., priority 1986, dated 1987):

Columns and labels:
Human Platelets = target: T1, Human Platelets (Homo sapiens, UniProt P21731); test: Inhibition of induced threshold aggregation of human platelets (aggregating agent U44069, platelet rich plasma); format: cell-based; conditions: for IC50: human platelet rich plasma, threshold aggregation induced by U44069, read-out: Inhibition of platelet aggregation (IC50 in µg/ml) (converted)
T1 sequence (P21731 1-343): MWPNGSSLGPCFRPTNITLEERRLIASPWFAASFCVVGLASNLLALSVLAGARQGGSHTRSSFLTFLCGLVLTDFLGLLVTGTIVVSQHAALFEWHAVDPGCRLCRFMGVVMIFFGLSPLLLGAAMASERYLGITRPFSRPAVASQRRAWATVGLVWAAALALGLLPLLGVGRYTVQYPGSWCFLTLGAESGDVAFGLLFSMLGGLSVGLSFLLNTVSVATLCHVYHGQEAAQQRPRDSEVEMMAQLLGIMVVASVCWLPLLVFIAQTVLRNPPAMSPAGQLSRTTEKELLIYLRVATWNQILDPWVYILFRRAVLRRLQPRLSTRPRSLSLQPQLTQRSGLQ
Description: Inhibition of Induced Threshold Aggregation of Human
Human platelet rich plasma (PRP) is prepared from venous blood of male volunteers who have taken no medication for ten days prior to test. […] The supernatant (PRP) is transferred into plastic tubes. Platelet poor plasma (PPP) is obtained by centrifuging the residual blood cells at 4000 g for ten minutes. PRP is left to stand at least one half hour prior to testing.
Platelet Aggregation is measured using a Payton Aggregometer and Recorder. […] Drug vehicle (control), or a drug concentration is then added in a volume of 0.5 microliter. After one minute, the aggregating agent (U44069, 9,11-dideoxy-9α,11α-epoxymethano PGF 2a ) is added to the cuvette in a volume of 25 microliters. Recording is continued until the maximal response is obtained.
The threshold (approximately 20 - 30% of maximum) aggregation concentration of the agonist to be used is first determined in the presence of the drug vehicle (control). […] All drugs are dissolved in dimethylsulfoxide.
The height of the aggregation response (measured in divisions of the recorder paper, 1 division × 2.5 mm) in the presence of the drug is recorded, and calculated as percent inhibition of the mean height of the control threshold responses.

[1] = system: Guinea Pig Tracheal Chain; test: Estimation of pA2 values in guinea pig tracheal chain (contractile agonist U-44069); set-up: species or system guinea pigs; conditions: for pA2 / Kb: guinea pig tracheal chain, antagonism of U-44069 contraction, logarithmic scale; for Kb: Cavia porcellus; for prostanoid antagonist activity (statement in words): Table 4 data (platelet aggregation and pA2)
Description: Estimation of pA2 Values in Guinea Pig Tracheal Chain
Male albino Hartley strain guinea pigs (300-350 gm) were sacrificed by a blow to the head and exsanguinated. The trachea was removed, freed of extraneous tissue and sectioned into rings of 1-2 mm thickness. Five rings were tied together in series, ensuring that the tracheal muscle lay in the same vertical plane, and the cartilage of each ring then separated at a point directly opposite the muscle. The chains were suspended under 1 gm resting tension in modified Krebs solution (NaCl, 6.87; NaHCO3, 2.1; dextrose, 2.1; KC1, 0.32; CaCl2, 0.28; MgSO4, 7H 0, 0.11; KH2PO4, 0.16; gm/L: equilibrated with 5% C02 in O2 for 1 hour) containing indomethacin (1.4 x 10^-5M) to suppress endogenous protaglandin synthesis, Organ bath temperature was maintained at 37°C and 5% C02 in 02 diffused continously. Isometric tension changes were recorded from a Gould-Statham (UTC 2) force displacement transducer connected to a Beckman Type R Dynograph. For assay purposes initial maximal contractions were elicited with a high concentration of the contractile agonist [U-44069, 9.11-dideoxy-9α,11α-epoxymethano PGF2α] and the tissue subsequently washed at intervals until tension returned to baseline. Agonist dose response curves were obtained using a cumulative-dose schedule (4-8 doses) and the preparations then washed at regular intervals until baseline tension was recorded. After an appropriate interval (1-1.5 hrs) agonist dose response curves were repeated in the presence of antagonist drug concentrations. […] EC50 values were obtained by regression analysis and used to calculate 'apparent' and Schild Plot pA2 values by the method of Tallarida and Murray 1981.

IC50 (Human Platelets) [nM]	Compound	pA2 [1]	Kb [1] [nM]	prostanoid antagonist activity (statement in words) [1]	times less potent as an inhibitor of platelet aggregation (Human Platelets; compared with compound 2)	pA2 is a factor less than that of compound 2 ([1]; compared with compound 2, printed as antilog of 1.6)
134	O=C(O)CC1CCCc2c1n(Cc1ccc(Cl)cc1)c1ccc(F)cc21 (single isomer, unassigned; (-)) [Compound 3, (-)9-p-chlorobenzyl-6-fluoro-1,2,3,4-tetrahydro-carbazol-1-yl-acetic acid]	8.0				
> 81100	COc1ccc2c(c1)c1c(n2Cc2ccc(Cl)cc2)CC(C(=O)O)CC1 (stereo not drawn) [B]		> 1000	no significant activity		
> 79000	COc1ccc2c(c1)c1cccc(CC(=O)O)c1n2Cc1ccc(Cl)cc1 [C]		263	does not possess any significant activity		
80.7	O=C(O)CC1CCCc2c1n(Cc1ccc(Cl)cc1)c1ccc(F)cc21 (stereo not drawn) [Compound 1, 9-p-chlorobenzyl-6-fluoro-1,2,3,4-tetrahydrocarbazol-1-yl-acetic acid]	8.6				
782	COc1ccc2c(c1)c1c(n2Cc2ccc(Cl)cc2)C(CC(=O)O)CCC1 (stereo not drawn) [Compound 2, 9-p-chlorobenzyl-6-methoxy-1,2,3,4-tetrahydrocarbazol-1-yl-acetic acid]		3.98			
408	COc1ccc(Cn2c3c(c4cc(F)ccc42)CCCC3CC(=O)O)cc1 (stereo not drawn) [Compound 6, 9-p-methoxybenzyl-6-fluoro-1,2,3,4-tetrahydrocarbazol-1-yl-acetic acid]		2			
222	O=C(O)CC1CCCc2c1n(Cc1ccc(Cl)c(Cl)c1)c1ccc(F)cc21 (stereo not drawn) [Compound 7, 9-(3,4-dichloro)benzyl-6-fluoro-1,2,3,4-tetrahydro-carbazol-1-yl-acetic acid]		5.01			
256	CC(c1ccccc1)n1c2c(c3cc(F)ccc31)CCCC2CC(=O)O (stereo not drawn) [Compound 8, 9-[1-(1-phenyl)ethyl]-6-fluoro-1,2,3,4-tetrahydro-carbazol-1-yl-acetic acid]		> 1000			
141	O=C(O)CC1CCCc2c1n(Cc1ccc(Cl)cc1)c1ccccc21 (stereo not drawn) [Compound 9, 9-p-chlorobenzyl-1,2,3,4-tetrahydrocarbazol-1-yl-acetic acid]		1.26			
258	O=C(O)CC1CCCc2c1n(Cc1ccc(Cl)cc1)c1ccc(Cl)cc21 (stereo not drawn) [Compound 10, 9-p-chlcrobenzyl-6-chloro-1,2,3,4-tetrahydrocarbazol-1-yl-acetic acid]		10			
272	Cc1cccc2c3c(n(Cc4ccc(Cl)cc4)c12)C(CC(=O)O)CCC3 (stereo not drawn) [Compound 11, 9-p-chlorobenzyl-8-methyl-l,2,3,4-tetrahydrocarbazol-1-yl-acetic acid]		0.316			
208	O=C(O)CC1CCCc2c1n(Cc1ccc(Cl)cc1)c1ccc(Br)cc21 (stereo not drawn) [Compound 12, 6-bromo-9-p-chlorobenzyl-l,2,3,4-tetrahydrocarbazol-l-yl-acetic acid]		12.6			
217	Cc1ccc2c(c1)c1c(n2Cc2ccc(Cl)cc2)C(CC(=O)O)CCC1 (stereo not drawn) [Compound 13, 9-p-chlorobenzyl-6-methyl-1,2,3,4-tetrahydrocarbazol-1-yl-acetic acid]		25.1			
215	O=C(O)CC1CCCc2c1n(Cc1ccc(Cl)cc1)c1c(F)cccc21 (stereo not drawn) [Compound 14, 9-p-chlorobenzyl-8 fluoro-1,2,3,4-tetrahydrocarbazol-1-yl-acetic acid]		0.398			
457	O=C(O)CC1CCCc2c1n(Cc1ccc(Cl)cc1)c1cccc(F)c21 (stereo not drawn) [Compound 16, 9-p-chlorobenzyl-5-fluoro-1,2,3,4-tetrahydrocarbazol-1-yl-acetic acid]		1.26			
166	O=C(O)CC1CCCc2c1n(Cc1ccc(Cl)cc1)c1c(Cl)cc(Cl)cc21 (stereo not drawn) [Compound 19, 9-p-chlorobenzyl-6,8-dichloro-1,2,3,4-tetrahydro-carbazol-1-yl-acetic acid]		63.1			
803	CC(C(=O)O)C1CCCc2c1n(Cc1ccc(Cl)cc1)c1ccc(F)cc21 (stereo not drawn) [Compound 20, 2-[9-p-chlorobenzyl-6-fluoro-1,2,3,4-tetrahydro-carbazol-1-yl-]propanoic acid]		158			
13800	O=C(O)CC1CCCc2c1[nH]c1ccc(F)cc21 (stereo not drawn) [Compound F, 6-fluoro-1,2,3,4-tetrahydrocarbazol-1-yl-acetic acid]		> 1000	severe loss of activity		
35200	O=C(O)CC1CCCc2c1n(CCc1ccc(Cl)cc1)c1ccc(F)cc21 (stereo not drawn) [Compound H, 9-[1-(2-p-chlorophenyl)ethyl]-6-fluoro-1,2,3,4-tetra-hydrocarbazol-1-yl-acetic acid]		158	serious loss of activity		
	COc1ccc2c(c1)c1c(n2Cc2ccc(Cl)cc2)CCCC1C(=O)O (stereo not drawn) [D]		> 1000	severe loss of activity		
11400	COc1ccc2c(c1)c1c(n2Cc2ccc(Cl)cc2)C(C(=O)O)CCC1 (stereo not drawn) [E]		219	severe loss of activity		
47000	CC(C)n1c2c(c3cc(F)ccc31)CCCC2CC(=O)O (stereo not drawn) [G, 6-fluoro-9-isopropyl-1,2,3,4-tetrahydrocarbazol-1-yl-acetic acid]		> 1000	almost completely lost activity		

Compound	IC50 (Human Platelets) [nM]	pA2 [1]	Kb [1] [nM]	prostanoid antagonist activity (statement in words) [1]	times less potent as an inhibitor of platelet aggregation (Human Platelets; compared with compound 2)	pA2 is a factor less than that of compound 2 ([1]; compared with compound 2, printed as antilog of 1.6)
COc1ccc2c(c1)c1c(n2Cc2ccc(Cl)cc2)CC(CC(=O)O)CC1 (stereo not drawn) [Compound A, reference compound]	9120		158		~12	14
